In PubChem BioAssay (NCI):
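Here, GI50 denotes the concentration required for 50% inhibition of growth. TGI denotes the concentration required for complete inhibition of growth.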

What was measured:
Experiment in all cases: DTP human tumour cell line panel, 384-well format
A498 renal = tested on: A498 renal
HCT-116 colon = tested on: HCT-116 colon
TK-10 renal = tested on: TK-10 renal
MALME-3M melanoma = tested on: MALME-3M melanoma
MOLT-4 leukemia = tested on: MOLT-4 leukemia
OVCAR-4 ovarian = tested on: OVCAR-4 ovarian
SNB-19 CNS = tested on: SNB-19 CNS
SK-MEL-2 melanoma = tested on: SK-MEL-2 melanoma
KM12 colon = tested on: KM12 colon
MDA-MB-231 breast = tested on: MDA-MB-231 breast
A549 NSCLC = tested on: A549 NSCLC
UO-31 renal = tested on: UO-31 renal
UACC-62 melanoma = tested on: UACC-62 melanoma
DU-145 prostate = tested on: DU-145 prostate
SR leukemia = tested on: SR leukemia
MCF7 breast = tested on: MCF7 breast
SW-620 colon = tested on: SW-620 colon
NCI-H460 NSCLC = tested on: NCI-H460 NSCLC
786-0 renal = tested on: 786-0 renal
OVCAR-8 ovarian = tested on: OVCAR-8 ovarian
SF-539 CNS = tested on: SF-539 CNS
U251 glioblastoma = tested on: U251 glioblastoma
NCI/ADR-RES ovarian = tested on: NCI/ADR-RES ovarian
IGROV1 ovarian = tested on: IGROV1 ovarian
LOX IMVI melanoma = tested on: LOX IMVI melanoma
HOP-62 NSCLC = tested on: HOP-62 NSCLC
M14 melanoma = tested on: M14 melanoma
SK-MEL-5 melanoma = tested on: SK-MEL-5 melanoma
HS 578T breast = tested on: HS 578T breast
MDA-MB-435 melanoma = tested on: MDA-MB-435 melanoma
T-47D breast = tested on: T-47D breast
NCI-H226 lung = tested on: NCI-H226 lung
SK-OV-3 ovarian = tested on: SK-OV-3 ovarian
EKVX NSCLC = tested on: EKVX NSCLC
K-562 leukemia = tested on: K-562 leukemia
SF-268 CNS = tested on: SF-268 CNS
NCI-H23 lung = tested on: NCI-H23 lung
CCRF-CEM leukemia = tested on: CCRF-CEM leukemia
HOP-92 NSCLC = tested on: HOP-92 NSCLC
OVCAR-5 ovarian = tested on: OVCAR-5 ovarian
ACHN renal = tested on: ACHN renal
SN12C renal = tested on: SN12C renal
HCC-2998 colon = tested on: HCC-2998 colon
PC-3 prostate = tested on: PC-3 prostate
SF-295 CNS = tested on: SF-295 CNS
HT29 colon = tested on: HT29 colon
NCI-H322M lung = tested on: NCI-H322M lung

Molecule `CNC(=O)c1cc(Oc2ccc(NC(=O)Nc3ccc(Cl)c(C(F)(F)F)c3)cc2)ccn1` has a GI50 (A498 renal) of 2370 nM, a TGI (A498 renal) of 4740 nM and a GI50 (HCT-116 colon) of 1650 nM. It also gave a TGI (HCT-116 colon) of 4140 nM, a GI50 (TK-10 renal) of 5090 nM and a TGI (TK-10 renal) of 17700 nM. It also gave a GI50 (MALME-3M melanoma) of 2010 nM, a TGI (MALME-3M melanoma) of 4120 nM and a GI50 (MOLT-4 leukemia) of 1660 nM. For the same molecule, the TGI (MOLT-4 leukemia) was 3060 nM, the GI50 (OVCAR-4 ovarian) was 3590 nM and the TGI (OVCAR-4 ovarian) was 6840 nM. For the same molecule, the GI50 (SNB-19 CNS) was 3330 nM, the TGI (SNB-19 CNS) was 8100 nM and the GI50 (SK-MEL-2 melanoma) was 2050 nM. It also gave a TGI (SK-MEL-2 melanoma) of 3490 nM, a GI50 (KM12 colon) of 413 nM and a TGI (KM12 colon) of 2320 nM. It also gave a GI50 (MDA-MB-231 breast) of 1820 nM, a TGI (MDA-MB-231 breast) of 3470 nM and a GI50 (A549 NSCLC) of 2950 nM. For the same molecule, the TGI (A549 NSCLC) was 8890 nM, the GI50 (UO-31 renal) was 748 nM and the TGI (UO-31 renal) was 1440 nM. It also gave a GI50 (UACC-62 melanoma) of 2080 nM, a TGI (UACC-62 melanoma) of 4060 nM and a GI50 (DU-145 prostate) of 2690 nM. For the same molecule, the TGI (DU-145 prostate) was 6570 nM, the GI50 (SR leukemia) was 2100 nM and the TGI (SR leukemia) was 3550 nM. For the same molecule, the GI50 (MCF7 breast) was 2140 nM, the TGI (MCF7 breast) was 5000 nM and the GI50 (SW-620 colon) was 2170 nM. For the same molecule, the TGI (SW-620 colon) was 4540 nM, the GI50 (NCI-H460 NSCLC) was 2100 nM and the TGI (NCI-H460 NSCLC) was 4250 nM. For the same molecule, the GI50 ([…]-0 renal) was 1890 nM, the TGI (786-0 renal) was 3700 nM and the GI50 (OVCAR-8 ovarian) was 2090 nM. The TGI (OVCAR-8 ovarian) was 4240 nM, the GI50 (SF-539 CNS) was 1690 nM and the TGI (SF-539 CNS) was 3540 nM. For the same molecule, the GI50 (U251 glioblastoma) was 2000 nM, the TGI (U251 glioblastoma) was 3740 nM and the GI50 (NCI/ADR-RES ovarian) was 2120 nM. It also gave a TGI (NCI/ADR-RES ovarian) of 4390 nM, a GI50 (IGROV1 ovarian) of 2460 nM and a TGI (IGROV1 ovarian) of 5910 nM. It also gave a GI50 (LOX IMVI melanoma) of 2190 nM, a TGI (LOX IMVI melanoma) of 4560 nM and a GI50 (HOP-62 NSCLC) of 1840 nM. It also gave a TGI (HOP-62 NSCLC) of 3420 nM, a GI50 (M14 melanoma) of 2480 nM and a TGI (M14 melanoma) of 5220 nM. For the same molecule, the GI50 (SK-MEL-5 melanoma) was 842 nM, the TGI (SK-MEL-5 melanoma) was 2440 nM and the GI50 (HS 578T breast) was 1780 nM. The TGI (HS 578T breast) was 3690 nM, the GI50 (MDA-MB-435 melanoma) was 2570 nM and the TGI (MDA-MB-435 melanoma) was 4980 nM. It also gave a GI50 (T-47D breast) of 1940 nM, a TGI (T-47D breast) of 5950 nM and a GI50 (NCI-H226 lung) of 1460 nM. It also gave a TGI (NCI-H226 lung) of 3280 nM, a GI50 (SK-OV-3 ovarian) of 3930 nM and a TGI (SK-OV-3 ovarian) of 10400 nM. The GI50 (EKVX NSCLC) was 2900 nM, the TGI (EKVX NSCLC) was 6800 nM and the GI50 (K-562 leukemia) was 1260 nM. The TGI (K-562 leukemia) was 2550 nM, the GI50 (SF-268 CNS) was 2220 nM and the TGI (SF-268 CNS) was 4710 nM. The GI50 (NCI-H23 lung) was 1560 nM, the TGI (NCI-H23 lung) was 3650 nM and the GI50 (CCRF-CEM leukemia) was 1590 nM. The TGI (CCRF-CEM leukemia) was 2950 nM, the GI50 (HOP-92 NSCLC) was 3000 nM and the TGI (HOP-92 NSCLC) was 7600 nM. For the same molecule, the GI50 (OVCAR-5 ovarian) was 2690 nM, the TGI (OVCAR-5 ovarian) was 6590 nM and the GI50 (ACHN renal) was 2710 nM. It also gave a TGI (ACHN renal) of 6370 nM, a GI50 (SN12C renal) of 2470 nM and a TGI (SN12C renal) of 5660 nM. For the same molecule, the GI50 (HCC-2998 colon) was 2130 nM, the TGI (HCC-2998 colon) was 3860 nM and the GI50 (PC-3 prostate) was 2710 nM. It also gave a TGI (PC-3 prostate) of 5910 nM, a GI50 (SF-295 CNS) of 2070 nM and a TGI (SF-295 CNS) of 4200 nM. It also gave a GI50 (HT29 colon) of 2350 nM, a TGI (HT29 colon) of 5960 nM and a GI50 (NCI-H322M lung) of 2610 nM. It also gave a TGI (NCI-H322M lung) of 5160 nM.
